# Reference: patent US20250101013A1, “FUNCTIONALIZED AMINOTHIAZOLES” (LEADXPRO AG, priority 2022, published 2025)
# Legend:
# Assay type in all cases: cell-based
# Details in all cases: HEK293 cells expressing recombinant human receptor
# human A2B receptor = human A2B receptor (Homo sapiens (Human), UniProt P29275); experiment: Intracellular cAMP functional assay (HTRF), A2B
# Experimental: (§1) Compound activity in human adenosine receptors A2A, A2B, A1, and A3 was measured in this functional cellular assay using an HTRF kit (Perkin Elmer). […] Dose response curves were performed in parallel with the reference compounds. The reference compounds used for A2A, A2B, A1, and A3, were respectively NECA, ZM241385, DPCPX, MRS. 12 μl of cells were mixed with 6 μl of the test compound at increasing concentrations and then incubated 10 min. Thereafter 6 μl of the reference agonist was added at a final concentration corresponding to the historical EC80. The plates were then incubated for 30 min at room temperature. After addition of the lysis buffer and 1 hour incubation, cAMP concentrations were estimated, according to the manufacturer specification, with the HTRF kit. The results showing functional activity of embodied compounds on adenosine receptors are shown below in Table 1.
# human A1 receptor = human A1 receptor (Homo sapiens (Human), UniProt P30542); experiment: Intracellular cAMP functional assay (HTRF), A1
# Sequence of human A1 receptor (P30542 whole entry): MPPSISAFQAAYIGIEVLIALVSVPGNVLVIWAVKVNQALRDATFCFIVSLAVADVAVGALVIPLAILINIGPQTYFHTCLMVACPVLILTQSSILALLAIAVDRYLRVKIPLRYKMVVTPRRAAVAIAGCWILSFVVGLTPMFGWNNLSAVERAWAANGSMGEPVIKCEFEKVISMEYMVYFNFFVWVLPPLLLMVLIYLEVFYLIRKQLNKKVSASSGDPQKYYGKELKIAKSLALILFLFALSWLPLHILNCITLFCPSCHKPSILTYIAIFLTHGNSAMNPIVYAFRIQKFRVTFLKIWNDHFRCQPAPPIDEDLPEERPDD
# Experimental: as §1
# human A3 receptor = human A3 receptor (Homo sapiens (Human), UniProt P0DMS8); experiment: Intracellular cAMP functional assay (HTRF), A3
# Sequence of human A3 receptor (P0DMS8 whole entry): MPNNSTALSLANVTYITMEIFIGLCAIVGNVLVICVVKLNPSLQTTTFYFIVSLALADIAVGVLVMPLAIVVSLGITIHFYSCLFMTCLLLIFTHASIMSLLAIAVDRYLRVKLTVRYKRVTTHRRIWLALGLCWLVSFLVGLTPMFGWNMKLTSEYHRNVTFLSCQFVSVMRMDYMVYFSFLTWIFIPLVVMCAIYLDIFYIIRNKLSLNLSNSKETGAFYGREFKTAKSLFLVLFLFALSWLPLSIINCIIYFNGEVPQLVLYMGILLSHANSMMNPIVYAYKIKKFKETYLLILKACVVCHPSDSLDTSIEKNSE
# Experimental: as §1
# human A2A receptor = human A2A receptor (Homo sapiens (Human), UniProt P29274); experiment: Intracellular cAMP functional assay (HTRF), A2A
# Sequence of human A2A receptor (P29274 whole entry): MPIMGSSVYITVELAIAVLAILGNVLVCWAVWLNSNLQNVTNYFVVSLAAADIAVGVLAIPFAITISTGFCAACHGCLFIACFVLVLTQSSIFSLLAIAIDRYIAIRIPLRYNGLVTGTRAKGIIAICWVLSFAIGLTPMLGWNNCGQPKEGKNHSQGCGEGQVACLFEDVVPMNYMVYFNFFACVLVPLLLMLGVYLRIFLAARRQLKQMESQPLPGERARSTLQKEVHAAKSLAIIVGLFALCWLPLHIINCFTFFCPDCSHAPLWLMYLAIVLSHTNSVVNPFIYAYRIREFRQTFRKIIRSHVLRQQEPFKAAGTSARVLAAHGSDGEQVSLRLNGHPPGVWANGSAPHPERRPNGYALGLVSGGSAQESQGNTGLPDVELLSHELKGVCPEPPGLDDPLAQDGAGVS
# Experimental: as §1
# Sequence of human A2B receptor (P29275 whole entry): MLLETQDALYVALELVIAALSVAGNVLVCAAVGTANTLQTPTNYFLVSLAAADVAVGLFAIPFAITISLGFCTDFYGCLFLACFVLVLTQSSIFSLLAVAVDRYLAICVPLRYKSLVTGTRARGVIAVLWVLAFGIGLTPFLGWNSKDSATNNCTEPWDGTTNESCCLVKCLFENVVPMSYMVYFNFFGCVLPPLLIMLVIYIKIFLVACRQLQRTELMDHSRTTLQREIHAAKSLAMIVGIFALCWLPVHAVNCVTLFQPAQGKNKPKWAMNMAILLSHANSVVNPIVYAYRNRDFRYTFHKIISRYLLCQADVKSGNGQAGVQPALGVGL
EC50 (human A2B receptor) [nM],EC50 (human A1 receptor) [nM],EC50 (human A3 receptor) [nM],EC50 (human A2A receptor) [nM],Compound
0.3,0.78,> 20000,78.9,"N#Cc1cccc(-c2nc(Nc3n[nH]c(C4CC4)n3)sc2-c2ccncc2F)c1 [Compound 2, 3-{2-[(5-cyclopropyl-1H-1,2,4-triazol-3-yl)amino]-5-(3-fluoropyridin-4-yl)-1,3-thiazol-4-yl}benzonitrile]"
0.38,1.8,> 20000,119,"Cc1cnccc1-c1sc(Nc2n[nH]c(C3CC3)n2)nc1-c1cccc(C#N)c1 [Compound 3, 3-{2-[(5-Cyclopropyl-1H-1,2,4-Triazol-3-Yl)Amino]-5-(3-Methylpyridin-4-Yl)-1,3-Thiazol-4-Yl}Benzonitrile]"
0.99,16.4,> 20000,3890,"Cc1cc(-c2sc(Nc3n[nH]c(C4CC4)n3)nc2-c2cccc(C#N)c2)c(C)cn1 [Compound 4, 3-{2-[(5-Cyclopropyl-1H-1,2,4-Triazol-3-Yl)Amino]-5-(2,5-Dimethylpyridin-4-Yl)-1,3-Thiazol-4-Yl}Benzonitrile]"
0.76,2.3,2350,478,"N#Cc1cccc(-c2nc(Nc3n[nH]c(C4CC4)n3)sc2-c2ccncc2Cl)c1 [Compound 5, 3-[5-(3-Chloropyridin-4-Yl)-2-[(5-Cyclopropyl-1H-1,2,4-Triazol-3-Yl)Amino]-1,3-Thiazol-4-Yl]Benzonitrile]"
0.84,1.2,2060,206,"Cc1nccc(-c2sc(Nc3n[nH]c(C4CC4)n3)nc2-c2cccc(C#N)c2)c1C [Compound 6, 3-{2-[(5-Cyclopropyl-1H-1,2,4-Triazol-3-Yl)Amino]-5-(2,3-Dimethylpyridin-4-Yl)-1,3-Thiazol-4-Yl}Benzonitrile]"
1.4,1.7,1740,24.4,"Cc1cc(-c2sc(Nc3n[nH]c(C4CC4)n3)nc2-c2cccc(C#N)c2)ccn1 [Compound 7, 3-{2-[(5-Cyclopropyl-1H-1,2,4-Triazol-3-Yl)Amino]-5-(2-Methylpyridin-4-Yl)-1,3-Thiazol-4-Yl}Benzonitrile]"
2.9,107,> 20000,> 10000,"Cc1nccn1-c1sc(Nc2n[nH]c(C3CC3)n2)nc1-c1cccc(C#N)c1 [Compound 8, 3-{2-[(5-Cyclopropyl-1H-1,2,4-Triazol-3-Yl)Amino]-5-(2-Methyl-1H-Imidazol-1-Yl)-1,3-Thiazol-4-Yl}Benzonitrile]"
3.3,145,2350,> 10000,"Cc1nccn1-c1sc(Nc2nc[nH]n2)nc1-c1cccc(C#N)c1 [Compound 9, 3-[5-(2-Methyl-1H-Imidazol-1-Yl)-2-[(1H-1,2,4-Triazol-3-Yl)Amino]-1,3-Thiazol-4-Yl]Benzonitrile]"
2.8,65,> 20000,> 10000,"Cc1cc(-c2sc(Nc3n[nH]c(C)n3)nc2-c2cccc(C#N)c2)c(C)cn1 [Compound 13, 3-[5-(2,5-Dimethylpyridin-4-Yl)-2-[(5-Methyl-1H-1,2,4-Triazol-3-Yl)Amino]-1,3-Thiazol-4-Yl]Benzonitrile]"
3,36.1,> 20000,> 10000,"Cc1cc(-c2sc(Nc3n[nH]c(CO)n3)nc2-c2cccc(C#N)c2)c(C)cn1 [Compound 14, 3-[5-(2,5-Dimethylpyridin-4-Yl)-2-{[5-(Hydroxymethyl)-1H-1,2,4-Triazol-3-Yl]Amino}-1,3-Thiazol-4-Yl]Benzonitrile]"
2.2,,,61,"CCc1nccn1-c1sc(Nc2n[nH]c(C)n2)nc1-c1cccc(C#N)c1 [Compound 16, 3-[5-(2-Ethyl-1H-Imidazol-1-Yl)-2-[(5-Methyl-1H-1,2,4-Triazol-3-Yl)Amino]-1,3-Thiazol-4-Yl]Benzonitrile]"
2.4,,,100,"N#Cc1cccc(-c2nc(Nc3n[nH]c(C4CC4)n3)sc2-n2ccnc2CO)c1 [Compound 17, 3-{2-[(5-Cyclopropyl-1H-1,2,4-Triazol-3-Yl)Amino]-5-[2-(Hydroxymethyl)-1H-Imidazol-1-Yl]-1,3-Thiazol-4-Yl}Benzonitrile]"
33.4,,,> 10000,"Cc1nccn1-c1sc(Nc2n[nH]c(C3CC3)n2)nc1-c1cc(C#N)ccc1F [Compound 18, 3-{2-[(5-Cyclopropyl-1H-1,2,4-Triazol-3-Yl)Amino]-5-(2-Methyl-1H-Imidazol-1-Yl)-1,3-Thiazol-4-Yl}-4-Fluorobenzonitrile]"
2.01,885,> 3400,5760,"N#Cc1cccc(-c2nc(Nc3nc[nH]n3)sc2-n2ccnc2CO)c1 [Compound 19, 3-{5-[2-(Hydroxymethyl)-1H-Imidazol-1-Yl]-2-[(1H-1,2,4-Triazol-3-Yl)Amino]-1,3-Thiazol-4-Yl}Benzonitrile]"
1.26,360,> 30000,3410,"CCc1nc(Nc2nc(-c3cccc(C#N)c3)c(-n3ccnc3CO)s2)n[nH]1 [Compound 20, 3-{2-[(5-Ethyl-1H-1,2,4-Triazol-3-Yl)Amino]-5-[2-(Hydroxymethyl)-1H-Imidazol-1-Yl]-1,3-Thiazol-4-Yl}Benzonitrile]"
1.64,> 30000,> 30000,6980,"Cc1nc(Nc2nc(-c3cccc(C#N)c3)c(-n3ccnc3CO)s2)n[nH]1 [Compound 21, 3-{5-[2-(Hydroxymethyl)-1H-Imidazol-1-Yl]-2-[(5-Methyl-1H-1,2,4-Triazol-3-Yl)Amino]-1,3-Thiazol-4-Yl}Benzonitrile]"
0.6,2.3,> 30000,,"Cc1cnccc1-c1sc(Nc2nc[nH]n2)nc1-c1cccc(C#N)c1 [Compound 22, 3-{5-(3-Methylpyridin-4-Yl)-2-[(1H-1,2,4-Triazol-3-Yl)Amino]-1,3-Thiazol-4-Yl}Benzonitrile]"
6.7,115,> 30000,,"Cc1cnncc1-c1sc(Nc2n[nH]c(C3CC3)n2)nc1-c1cccc(C#N)c1 [Compound 23, 3-{2-[(5-Cyclopropyl-1H-1,2,4-Triazol-3-Yl)Amino]-5-(5-Methylpyridazin-4-Yl)-1,3-Thiazol-4-Yl}Benzonitrile]"
2.3,24.1,> 30000,,"N#Cc1cccc(-c2nc(Nc3n[nH]c(C4CC4)n3)sc2-c2ccncn2)c1 [Compound 24, 3-{2-[(5-Cyclopropyl-1H-1,2,4-Triazol-3-Yl)Amino]-5-(Pyrimidin-4-Yl)-1,3-Thiazol-4-Yl}Benzonitrile]"
2.4,2.6,> 30000,,"N#Cc1cccc(-c2nc(Nc3n[nH]c(C4CC4)n3)sc2-c2ccnnc2)c1 [Compound 25, 3-{2-[(5-Cyclopropyl-1H-1,2,4-Triazol-3-Yl)Amino]-5-(Pyridazin-4-Yl)-1,3-Thiazol-4-Yl}Benzonitrile]"
0.7,0.8,> 30000,,"N#Cc1cccc(-c2nc(Nc3n[nH]c(C4CC4)n3)sc2-c2ccncc2)c1 [Compound 26, 3-{2-[(5-Cyclopropyl-1H-1,2,4-Triazol-3-Yl)Amino]-5-(Pyridin-4-Yl)-1,3-Thiazol-4-Yl}Benzonitrile]"
1.7,20.7,> 30000,,"Cc1cncnc1-c1sc(Nc2n[nH]c(C3CC3)n2)nc1-c1cccc(C#N)c1 [Compound 27, 3-{2-[(5-Cyclopropyl-1H-1,2,4-Triazol-3-Yl)Amino]-5-(5-Methylpyrimidin-4-Yl)-1,3-Thiazol-4-Yl}Benzonitrile]"
0.4,4.8,> 30000,1.1,"Cn1cc(-c2sc(Nc3n[nH]c(C4CC4)n3)nc2-c2cccc(C#N)c2)ccc1=O [Compound 29, 3-{2-[(5-Cyclopropyl-1H-1,2,4-Triazol-3-Yl)Amino]-5-(1-Methyl-6-Oxo-1,6-Dihydropyridin-3-Yl)-1,3-Thiazol-4-Yl}Benzonitrile]"
